# Measured values taken from patent publication US20210137913A1, “THERAPEUTIC AGENT FOR ASPIRATION PNEUMONIA, LUNG SUPPURATION, OR LUNG ABSCESS” (KYORIN PHARMACEUTICAL CO., LTD., priority 2017, published 2021).
# How the values were obtained:
# anaerobic bacteria = conditions: Non Patent Literature 2; cited from earlier work
# [1] = system: subjects suspected of having aspiration pneumonia; test: Test Example 1: clinical efficacy in aspiration pneumonia; format: in vivo, human
# Description: (§1) The investigational new drug A was administered intravenously for 7 to 14 days to 13 subjects suspected of having aspiration pneumonia meeting the following criteria.
# A clear infiltrative shadow appearing acutely on chest X-rays or CT images taken within 48 hours before the start of administration at the age of 16 years or older, is observed.
# Confirmation of clear aspiration, choking or dysphagia, has a disease or history of disease with potential dysphagia.
# (§2) The patient presents with symptoms and inflammation that are characteristic of aspiration pneumonia. On the first day of the start of administration, two doses of investigational new drug A (300 mg/day) were used, and on the second day of administration, one dose of investigational new drug A (150 mg/day) was used, and then the same dose (150 mg/day) was maintained. The administration of the injection was performed intravenously over about 1 hour per dose.
# (§3) The clinical efficacy of Test Examples 1 and 2 were determined by setting the following criteria, based on the criteria for clinical efficacy of pneumonia described in Clinical evaluation method of new antibacterial drugs in respiratory infections (2nd edition), Japanese Journal of Chemotherapy. 2012; 60(1): 30-45. 9). The primary endpoint was the efficacy rate at the end of administration or discontinuation of investigational new drug A.
# (§4) The end of administration herein means the evaluation date on the day after the administration of the investigational new drug A is completed. Moreover, the time of discontinuation means the date on which the evaluation was performed within 3 days from the last administration date or the discontinuation judgment date of the investigational new drug A. Furthermore, “the end of administration or the time of discontinuation” is expressed as End of Treatment (EOT). In addition, CRP is an abbreviation for C-reactive protein, and is one of the acute phase reactants produced in a short time in response to various inflammations. It is a useful index for the observation of therapeutic effects since it increases in a few hours in bacterial infections such as pneumonia and decreases rapidly as the inflammation subsides.
# (§5) “Early therapeutic effect” was defined as a case in which significant improvement is observed 3 days after administration (regardless of whether administration was completed or continued after 4 days).
# (§6) Samples for microbiological evaluation were collected before starting an appropriate alternative antibacterial treatment.
# (§7) In addition, if the discontinuation date is the start date of administration (day 0) or the second day of administration (day 1), the determination of early drug efficacy was regarded as unnecessary. In the case of the third day of administration (day 2) or later, it was determined using the test results at the time of discontinuation.
# (§8) When the treatment was discontinued after the next day after the end of the administration, the clinical efficacy at the end of the administration was determined, and the determination of the clinical efficacy at the time of discontinuation was not required. In addition, it was judged as “Ineffective” when the treatment was discontinued or when it was changed to an alternative antibacterial treatment after the end of administration of the investigational new drug. […] When changing to an alternative antibacterial treatment, in principle, prescribed tests, examinations and judgments at the end of treatment were made before the change.
# (§9) The efficacy rate is the value obtained by the following formula.
# (§10) Efficacy rate=(number of subjects rated as “Effective”[…]number of subjects rated as “Effective” or “Ineffective”)×100(%)
# [2] = system: subjects suspected of having lung suppuration or lung abscess; test: Test Example 2: clinical efficacy in lung suppuration or lung abscess; format: in vivo, human
# Description: (§11) The investigational new drug A was administered intravenously for 7 to 14 days to 11 subjects suspected of having lung suppuration or lung abscess meeting the following criteria.
# On chest X-rays or CT images taken within 48 hours before the start of administration at the age of 16 years or older, a massive shadow or a shadow with cavities inside (nodular shadow, mass shadow) is observed. Regardless of the presence of a niveau due to pus accumulation.
# The patient presents with symptoms and inflammation that are characteristic of lung suppuration or lung abscess.
# as §2, with “On” for “The patient presents with symptoms and inflammation that are characteristic of aspiration pneumonia. On”
# as §3, §4, §5, §6, §7, §8, §9, §10
# Anaerobe [3] = test: Microbiological efficacy according to the causative bacteria (Aspiration pneumonia); format: in vivo
# Description: as §1, §2, §6
# (§12) Table 4 and Table 5 show the microbiological efficacy of Test Examples 1 and 2 according to the causative bacteria.
# [4] = system: genus Parvimonas P. micra; test: as above; format: in vivo; conditions: case number 1
# Description: as §1, §2, §6, §12
# [5] = system: genus Actinomyces A. odontolyticus; test: as above; format: in vivo; conditions: case number 1
# Description: as §1, §2, §6
# [6] = system: genus Bacteroides Bacteroides sp.; test: as above; format: in vivo; conditions: case number 2
# Description: as §1, §2, §6
# [7] = system: genus Prevotella P. buccae; test: as above; format: in vivo; conditions: case number 1
# Description: as §1, §2, §6
# [8] = system: genus Prevotella P. intermedia; test: as above; format: in vivo; conditions: case number 1
# Description: as §1, §2, §6
# [9] = system: genus Prevotella Prevotella sp.; test: as above; format: in vivo; conditions: case number 6
# Description: as §1, §2, §6
# [10] = system: genus Veillonella Veillonella sp.; test: as above; format: in vivo; conditions: case number 7
# Description: as §1, §2, §6
# Anaerobe [11] = test: Microbiological efficacy according to the causative bacteria (Lung suppuration/lung abscess); format: in vivo
# Description: as §11
# as §2, with “On” for “The patient presents with symptoms and inflammation that are characteristic of aspiration pneumonia. On”
# as §6, §12
# [12] = system: genus Parvimonas P. micra; test: as above; format: in vivo; conditions: case number 2
# Description: as §11
# as §2, with “On” for “The patient presents with symptoms and inflammation that are characteristic of aspiration pneumonia. On”
# as §6, §12
# [13] = system: genus Bacteroide B. fragilis; test: as above; format: in vivo; conditions: case number 1
# Description: as §11
# as §2, with “On” for “The patient presents with symptoms and inflammation that are characteristic of aspiration pneumonia. On”
# as §6
# [14] = system: genus Fusobacterium F. necrophorum; test: as above; format: in vivo; conditions: case number 1
# Description: as §11
# as §2, with “On” for “The patient presents with symptoms and inflammation that are characteristic of aspiration pneumonia. On”
# as §6
# [15] = system: genus Fusobacterium F. nucleatum; test: as above; format: in vivo; conditions: case number 4
# Description: as §11
# as §2, with “On” for “The patient presents with symptoms and inflammation that are characteristic of aspiration pneumonia. On”
# as §6
# [16] = system: genus Leptotrichia Leptotrichia buccalis; test: as above; format: in vivo; conditions: case number 1
# Description: as §11
# as §2, with “On” for “The patient presents with symptoms and inflammation that are characteristic of aspiration pneumonia. On”
# as §6
# [17] = system: genus Porphyromonas P. gingivalis; test: as above; format: in vivo; conditions: case number 1
# Description: as §11
# as §2, with “On” for “The patient presents with symptoms and inflammation that are characteristic of aspiration pneumonia. On”
# as §6
# [18] = system: genus Prevotella P. intermedia; test: as above; format: in vivo; conditions: case number 1
# Description: as §11
# as §2, with “On” for “The patient presents with symptoms and inflammation that are characteristic of aspiration pneumonia. On”
# as §6
# [19] = system: genus Prevotella P. melaninogenica; test: as above; format: in vivo; conditions: case number 1
# Description: as §11
# as §2, with “On” for “The patient presents with symptoms and inflammation that are characteristic of aspiration pneumonia. On”
# as §6
# [20] = system: genus Prevotella P. oralis; test: as above; format: in vivo; conditions: case number 1
# Description: as §11
# as §2, with “On” for “The patient presents with symptoms and inflammation that are characteristic of aspiration pneumonia. On”
# as §6
# [21] = system: genus Prevotella Prevotella sp.; test: as above; format: in vivo; conditions: case number 1
# Description: as §11
# as §2, with “On” for “The patient presents with symptoms and inflammation that are characteristic of aspiration pneumonia. On”
# as §6
# [22] = system: genus Veillonella Veillonella sp.; test: as above; format: in vivo; conditions: case number 2
# Description: as §11
# as §2, with “On” for “The patient presents with symptoms and inflammation that are characteristic of aspiration pneumonia. On”
# as §6
# [23] = Test Example 1, aspiration pneumonia, 3 days after administration, number of subjects
# [24] = Test Example 1, aspiration pneumonia, EOT, number of subjects
# [25] = conclusion from Table 2 and Table 3
# [26] = Test Example 2, lung suppuration or lung abscess, 3 days after administration, number of subjects
# [27] = Test Example 2, lung suppuration or lung abscess, EOT, number of subjects
# [28] = aspiration pneumonia, Anaerobe total, case number 19
# [29] = lung suppuration/lung abscess, Anaerobe total, case number 16
smiles,measurement,setting,value
C[C@H]1COc2c(C3(N)CC3)c(F)cc3c(=O)c(C(=O)O)cn1c23 [pazufloxacin],antibacterial activity against anaerobic bacteria (in words),anaerobic bacteria,insufficient antibacterial activity
"COc1c(N2C[C@H](CNC3CC3)[C@H](F)C2)c(F)cc2c(=O)c(C(=O)O)cn(CCF)c12 [investigational new drug A, 7-[(3S,4S)-3-{(cyclopropylamino)methyl}-4-fluoropyrrolidin-1-yl]-6-fluoro-1-(2-fluoroethyl)-8-methoxy-4-oxo-1,4-dihydroquinoline-3-carboxylic acid]","Early drug efficacy evaluation, Clinical efficacy: Effective","[1]; Test Example 1, aspiration pneumonia, 13 subjects, i.v. 300 mg day 1 then 150 mg/day, 3 days after administration, number of subjects",12
same,Early drug efficacy evaluation: Efficacy rate,"[1]; Test Example 1, aspiration pneumonia, 3 days after administration",92%
same,"Early drug efficacy evaluation, Clinical efficacy: Ineffective",[1]; [23],1
same,"Early drug efficacy evaluation, Clinical efficacy: Undeterminable",[1]; [23],0
same,End of Treatment: Efficacy rate,"[1]; Test Example 1, aspiration pneumonia, EOT",100%
same,End of Treatment: Efficacy rate,"[1]; Test Example 1, aspiration pneumonia, EOT, listed as 7-[(3S,4S)-3-{(cyclopropylamino)methyl}-4-fluoropyrrolidin-1-yl]-6-fluoro-1-(2-f)",100%
same,"End of Treatment, Clinical efficacy: Ineffective",[1]; [24],0
same,"End of Treatment, Clinical efficacy: Undeterminable",[1]; [24],1
same,"End of Treatment, Clinical efficacy: Effective","[1]; Test Example 1, aspiration pneumonia, end of administration or discontinuation (EOT), number of subjects",12
same,therapeutic effect on aspiration pneumonia (in words),[1]; [25],high therapeutic effect
same,"Early drug efficacy evaluation, Clinical efficacy: Effective","[2]; Test Example 2, lung suppuration or lung abscess, 11 subjects, i.v. 300 mg day 1 then 150 mg/day, 3 days after administration, number of subjects",9
same,Early drug efficacy evaluation: Efficacy rate,"[2]; Test Example 2, lung suppuration or lung abscess, 3 days after administration",82%
same,"Early drug efficacy evaluation, Clinical efficacy: Ineffective",[2]; [26],2
same,"Early drug efficacy evaluation, Clinical efficacy: Undeterminable",[2]; [26],0
same,End of Treatment: Efficacy rate,"[2]; Test Example 2, lung suppuration or lung abscess, EOT",91%
same,End of Treatment: Efficacy rate,"[2]; Test Example 2, lung suppuration or lung abscess, EOT, listed as 7-[(3S,4S)-3-{(cyclopropylamino)methyl}-4-fluoropyrrolidin-1-yl]-6-fluoro-1-(2-f)",91%
same,"End of Treatment, Clinical efficacy: Effective",[2]; [27],10
same,"End of Treatment, Clinical efficacy: Ineffective",[2]; [27],1
same,"End of Treatment, Clinical efficacy: Undeterminable",[2]; [27],0
same,therapeutic effect on lung suppuration or lung abscess (in words),[2]; [25],high therapeutic effect
same,Result: Eradicated,Anaerobe [3]; [28],17
same,Result: Persisted,Anaerobe [3]; [28],2
same,antibacterial effect on the causative bacteria of aspiration pneumonia (in words),Anaerobe [3]; conclusion from Table 4,high antibacterial effect
same,Result: Eradicated,[4],1
same,Result: Persisted,[4],0
same,Result: Eradicated,[5],1
same,Result: Persisted,[5],0
same,Result: Eradicated,[6],2
same,Result: Persisted,[6],0
same,Result: Eradicated,[7],1
same,Result: Persisted,[7],0
same,Result: Eradicated,[8],1
same,Result: Persisted,[8],0
same,Result: Eradicated,[9],6
same,Result: Persisted,[9],0
same,Result: Eradicated,[10],5
same,Result: Persisted,[10],2
same,antibacterial effect on the causative bacteria of lung suppuration or lung abscess (in words),Anaerobe [11]; conclusion from Table 5,high antibacterial effect
same,Result: Eradicated,Anaerobe [11]; [29],15
same,Result: Persisted,Anaerobe [11]; [29],1
same,Result: Eradicated,[12],2
same,Result: Persisted,[12],0
same,Result: Eradicated,[13],1
same,Result: Persisted,[13],0
same,Result: Eradicated,[14],1
same,Result: Persisted,[14],0
same,Result: Eradicated,[15],4
same,Result: Persisted,[15],0
same,Result: Eradicated,[16],1
same,Result: Persisted,[16],0
same,Result: Eradicated,[17],1
same,Result: Persisted,[17],0
same,Result: Eradicated,[18],0
same,Result: Persisted,[18],1
same,Result: Eradicated,[19],1
same,Result: Persisted,[19],0
same,Result: Eradicated,[20],1
same,Result: Persisted,[20],0
same,Result: Eradicated,[21],1
same,Result: Persisted,[21],0
same,Result: Eradicated,[22],2
same,Result: Persisted,[22],0
O=C(O)c1cn(C2CC2)c2cc(N3CCNCC3)c(F)cc2c1=O [ciprofloxacin],antibacterial activity against anaerobic bacteria (in words),anaerobic bacteria,insufficient antibacterial activity
